Data reported in the NIST ThermoML archive (doi:10.1016/j.fluid.2008.03.012).
Numbers after ± are expanded uncertainties.

Experiment: excess molar enthalpy (molar enthalpy of mixing); xn = mol fraction of the nth substance listed
Conditions: Liquid, Flow calorimetry

CCOC(=O)CC(C)=O [ethyl 3-oxobutanoate] + CO
excess molar enthalpy [kcal/mol]
Conditions	298.15 K	313.15 K	328.15 K
100 kPa, x1 = 0.0998	0.12 ± 0.00263	0.135 ± 0.00311	0.146 ± 0.00335
100 kPa, x1 = 0.2002	0.202 ± 0.0043	0.227 ± 0.00502	0.244 ± 0.00526
100 kPa, x1 = 0.2994	0.256 ± 0.0055	0.285 ± 0.00621	0.309 ± 0.00669
100 kPa, x1 = 0.3505	0.274 ± 0.00598	0.305 ± 0.00645	0.332 ± 0.00717
100 kPa, x1 = 0.3995	0.287 ± 0.00621	0.318 ± 0.00693	0.346 ± 0.00741
100 kPa, x1 = 0.4495	0.295 ± 0.00621	0.326 ± 0.00693	0.354 ± 0.00765
100 kPa, x1 = 0.4998	0.298 ± 0.00645	0.33 ± 0.00717	0.357 ± 0.00765
100 kPa, x1 = 0.5495	0.296 ± 0.00621	0.326 ± 0.00693	0.352 ± 0.00765
100 kPa, x1 = 0.5997	0.288 ± 0.00621	0.318 ± 0.00693	0.341 ± 0.00741
100 kPa, x1 = 0.65	0.275 ± 0.00598	0.304 ± 0.00645	0.323 ± 0.00693
100 kPa, x1 = 0.6995	0.257 ± 0.0055	0.279 ± 0.00598	0.299 ± 0.00645
100 kPa, x1 = 0.7994	0.199 ± 0.0043	0.211 ± 0.00454	0.224 ± 0.00502
100 kPa, x1 = 0.8982	0.111 ± 0.00263	0.115 ± 0.00263	0.12 ± 0.00287
10000 kPa, x1 = 0.0996	0.116 ± 0.00263	0.133 ± 0.00311	0.145 ± 0.00335
10000 kPa, x1 = 0.1999	0.197 ± 0.0043	0.225 ± 0.00502	0.244 ± 0.00526
10000 kPa, x1 = 0.299	0.248 ± 0.00526	0.283 ± 0.00598	0.309 ± 0.00669
10000 kPa, x1 = 0.35	0.265 ± 0.00574	0.303 ± 0.00645	0.331 ± 0.00717
10000 kPa, x1 = 0.399	0.276 ± 0.00598	0.317 ± 0.00693	0.346 ± 0.00741
10000 kPa, x1 = 0.449	0.283 ± 0.00598	0.325 ± 0.00693	0.354 ± 0.00765
10000 kPa, x1 = 0.4993	0.286 ± 0.00621	0.329 ± 0.00693	0.356 ± 0.00765
10000 kPa, x1 = 0.5489	0.283 ± 0.00598	0.324 ± 0.00693	0.352 ± 0.00765
10000 kPa, x1 = 0.5992	0.274 ± 0.00598	0.317 ± 0.00669	0.341 ± 0.00717
10000 kPa, x1 = 0.6495	0.261 ± 0.00574	0.301 ± 0.00645	0.322 ± 0.00693
10000 kPa, x1 = 0.699	0.242 ± 0.00526	0.273 ± 0.00598	0.297 ± 0.00645
10000 kPa, x1 = 0.799	0.182 ± 0.00406	0.209 ± 0.00454	0.222 ± 0.00478
10000 kPa, x1 = 0.898	0.0986 ± 0.00232	0.113 ± 0.00263	0.118 ± 0.00287
